These results are taken from the METLIN SMRT retention time set (Domingo-Almenara et al. 2019).

A short description of this data set: gradient 5% acetonitrile 3 min, to 50% in 2 min, to 85% in 15 min, held 3 min, 100 µL/min. Conditions: column: Zorbax Extend-C18 2.1 x 50 mm; eluents: water / acetonitrile, 0.1% formic acid. The procedure, abridged:
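The system's dead and dwell volumes were 40 μL and 900 μL, with a Zorbax Extend-C18 column (2.1 × 50 mm, 1.8 μm) run at 100 μL/min in water and acetonitrile containing 0.1% formic acid each. Pure standards were analyzed in mixtures of ~100 molecules by HPLC–quadrupole time-of-flight mass spectrometry in positive and negative ionization mode. Retention time was assigned from computationally picked, manually inspected adduct peaks.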
Take `CCOC(=O)c1cc(S(=O)(=O)N2CCCC2C(=O)Nc2ccc(F)cc2C)cn1C` (stereo not drawn): the RP-LC retention time was found to be 940 s.
As to `Cc1ccc(-c2nnc(SCc3noc(CCC(=O)Nc4nccs4)n3)o2)cc1`, the RP-LC retention time was 816 s.
For `COc1cc(OC)cc(C(=O)NC2CCN(c3cc(-c4cccs4)[nH]n3)C2)c1` (stereo not drawn) the value was 741 s; for `Cc1nc(Cn2cccc2C(=O)Nc2ccc(Br)c(C)c2)no1`, 995 s.
`CC1CCC2(CC1)NC(=O)N(CC(=O)NCc1ccc3c(c1)OCO3)C2=O` (stereo not drawn) had an RP-LC retention time of 749 s.
For `COc1cc(Nc2c(C(=O)N3CCC(C)CC3)cnc3nc(C)ccc23)cc(OC)c1` the value was 662 s; for `COc1cccc(NC(=O)Cn2c(=O)n(-c3ccc(F)cc3)c(=O)c3c2cc(C)n3C)c1`, 834 s; for `COc1cc(OC)c(NC(=O)CN2C(=O)NC(c3ccc(Cl)cc3)C3=C2COC3=O)cc1Cl` (stereo not drawn), 858 s.
Then `CC(Oc1ccc(=O)n(-c2ccc(F)cc2)n1)C(=O)Nc1ccc(F)c(F)c1` (stereo not drawn), with 816 s.
Then `O=C(c1cnccn1)N1CCC2(CC1)N=C(c1ccccc1)NO2`, with 641 s.
On to `Cc1cnc(CCNS(=O)(=O)c2ccc(C#N)cc2)n1C1CC1`, for which the RP-LC retention time was found to be 960 s.
`Cc1cc(C)c(CNC(=O)c2c(C)sc3ccn(C)c(=O)c23)c(C)c1`: the RP-LC retention time was 921 s.
For `C=CCn1c(=O)c2ccccc2n(Cc2nc(-c3ccccc3Cl)no2)c1=O` the value was 1020 s.
For `CCc1nc2cc(-c3noc(Cc4ccccc4Cl)n3)ccc2o1` the value was 1170 s; for `COc1cc(C(=O)N2CCN(c3cc(C)n4c(C)nnc4n3)CC2)cc(OC)c1OC`, 587 s.
Then `COc1ccc(-c2noc(-c3nc(-c4cccnc4)no3)n2)cc1OC`, with 893 s; and `COC(=O)c1ncn2c1C(=O)N(Cc1cccc(C)c1)C(C)(C(=O)NCc1ccc(C)cc1)C2` (stereo not drawn), with 801 s.
Molecule `COCCN1C(=O)c2ccccc2C(C(=O)NCCCN2CCCC(C)C2)C1c1cccs1` (stereo not drawn) yielded an RP-LC retention time of 643 s.
Consider `CCN1CCC(N(Cc2ccc3c(c2)OCO3)C(=O)Nc2ccc(OC)cc2OC)CC1`, for which the RP-LC retention time worked out at 659 s.
Then `CCC1Oc2ccc(S(=O)(=O)N3CCC(C(=O)Nc4ccc(C(C)C)cc4)CC3)cc2NC1=O` (stereo not drawn), with 1000 s; and `COc1ccc(C(C)NC(=O)C2C(=O)NC3(C)CC2c2ccccc2O3)cc1` (stereo not drawn), with 747 s; and `c1ccc(N2CCN(Cc3nc(-c4ccc(N5CCOCC5)nc4)no3)CC2)cc1`, with 772 s.
For `Cn1c(=O)c2cc(C(=O)Nc3ccc(F)c(Cl)c3)sc2n(C)c1=O` the value was 847 s; for `CCN(C(=O)c1ccccc1C)c1nc(-c2ccccc2)cs1`, 1260 s; for `Cc1ccc(NC(=O)C2CCCN(c3ccc(-n4ccnc4)nn3)C2)cc1F` (stereo not drawn), 597 s.
The molecule `CCc1nnc(C2CN(C)CC23CCN(S(=O)(=O)c2cccc(Cl)c2)CC3)o1` (stereo not drawn) registered an RP-LC retention time of 645 s.
`O=C(NCc1cccc(Oc2ccc(F)cc2)c1)c1cccnc1`: the RP-LC retention time came to 588 s.
Then `CCCc1c(C(=O)O)nnn1Cc1ccccc1Cl`, with 796 s; and `O=C(NC1CCN(c2cc(-c3ccc(Cl)cc3)[nH]n2)C1)c1ccc(F)c(F)c1` (stereo not drawn), with 839 s.
On to `COc1ccc(NS(=O)(=O)c2c(C)sc(C)c2-c2cc(C(F)(F)F)on2)c(OC)c1`, for which the RP-LC retention time came out at 1140 s.
For `O=C(Cn1c(=O)c2cccn2c2ccc(F)cc21)NCCc1cccs1` the value was 822 s; for `CC(NC(=O)Cn1ncc2c(N3CCN(c4ccccn4)CC3)ncnc21)c1ccccc1` (stereo not drawn), 616 s.
In turn, `O=S(=O)(c1ccc(F)c(F)c1)N1CCc2nc(-c3ccc(Cl)cc3)ncc2C1` gave an RP-LC retention time of 1230 s.
Then `CC1=C(c2cccc(Cl)c2)S(=O)(=O)N=C1N1CCCN(C(=O)c2ccco2)CC1`, with 818 s.
Then `COC(=O)c1ccc2c(=O)n(-c3ccccc3)c(N3CCCCC3)nc2c1`, with 1170 s.
Then `Cc1ccc(CNC(=O)C2CCCN(c3nnc4ccccn34)C2)o1` (stereo not drawn), with 649 s.
For the molecule `COC(=O)c1ccc2c(=O)n(-c3cccc(Cl)c3)c(N3CCSCC3)nc2c1`, the RP-LC retention time is 1090 s.
For `Cc1cccc(NC(=O)Cn2nc3c(Oc4ccc(Cl)cc4)nccn3c2=O)c1` the value was 930 s; for `CCc1ccc(NC(=O)N2CCN(Cc3nc4ccccc4o3)CC2)cc1`, 738 s.
Then `FC(F)c1nc2ccccc2n1-c1nc(N2CCOCC2)nc(N2CCOCC2)n1`, with 938 s; and `CC(C)OCCCNC(=O)CCCn1c2ccccc2c2cnn(C)c(=O)c21`, with 773 s; and `O=C(c1ccsc1)N1CCC(Cc2nnc(-c3ccccc3)o2)CC1`, with 774 s.
For `CCCNC(=O)C1CCCN(c2nc3ncn(CC(=O)Nc4cc(C)ccc4C)c(=O)c3s2)C1` (stereo not drawn) the value was 703 s; for `CCCNC(=O)c1cc2sccc2n1Cc1ccc(C)cc1`, 1060 s.
`Cc1ccc(S(=O)(=O)Nc2ccc3c(c2)nc(-c2ccc(C(=O)NC(C)C)cc2)n3C)cc1`: the RP-LC retention time was found to be 695 s.
Then `CCc1nnc2nc(N3CCN(C(=O)COc4ccc(Cl)cc4)CC3)cc(C)n12`, with 648 s.
In the case of `Cc1ccsc1C(=O)N1CCN(c2ccc(=O)n(-c3cccc(Cl)c3)n2)CC1`, the RP-LC retention time was found to be 853 s.
Molecule `O=C(O)c1ccc2c(c1)n(Cc1ccc(F)cc1)c(=O)c1ccnn12` gave an RP-LC retention time of 793 s.
Then `COc1cc(OC)c(NC(=O)N2CCOc3ccccc32)cc1Cl`, with 1010 s.
`CC(C)Oc1ccc(CNS(=O)(=O)c2cc(-c3nc(C(C)(C)C)cs3)cs2)cc1` registered an RP-LC retention time of 1320 s.
`Cc1oc(C2CCN(C(=O)Nc3ccc(F)cc3F)CC2)nc1C(=O)N1CCCC1` yielded an RP-LC retention time of 744 s.
In turn, `O=C(Nc1ccc2c(c1)CN(S(=O)(=O)c1ccc3c(c1)CCC3)CCO2)C1CC1` yielded an RP-LC retention time of 932 s.
Then `COc1ccccc1NC(=O)Cn1nc2c3sc(N(C)C)nc3ncn2c1=O`, with 690 s.
Then `CC(C)Oc1ccc(CN2CCC3(CC2)CN(C)CC3c2nnc(C(C)C)o2)cc1` (stereo not drawn), with 577 s; and `Cc1ccc2[nH]c(=O)c(CCC(=O)NCc3ccccn3)cc2c1`, with 596 s.
Consider `Cc1ccccc1-c1nc(C2CCN(S(=O)(=O)c3ccccc3F)CC2)no1`, for which the RP-LC retention time worked out at 1150 s.
For `COc1cc2nc(SCC(=O)Nc3cc(C)[nH]n3)n3nc(C)nc3c2cc1OC` the value was 605 s; for `CC(C)c1ccc(CN2C[C@@H]3C(=O)N(CCc4ccccc4)C(=O)[C@@H]3C2)cc1`, 772 s.
Consider `CCOC(=O)c1[nH]c(C)c(CCC(=O)N2CCN(C(=O)c3ccco3)CC2)c1C`, for which the RP-LC retention time is 709 s.
As to `O=C(Nc1ccc(F)cc1)N1CCCC1c1nc(-c2ccc(F)cc2F)no1` (stereo not drawn), the RP-LC retention time was determined as 934 s.
Then `CCc1cccc(NC(=O)C2CCN(S(=O)(=O)c3cn(C(C)C)cn3)CC2)c1`, with 840 s.
For `CC1=C(c2ccc(C)cc2)S(=O)(=O)N=C1N1CCC(NC(=O)Cc2cccs2)CC1` the value was 858 s.
As to `O=C(Cn1c(=O)cc(-c2nc(C3CC3)no2)c2ccccc21)NCCC1=CCCCC1`, the RP-LC retention time is 1110 s.
For `CC(C)n1c(CCNC(=O)c2ccc(F)cc2)nc2cccnc21`, the RP-LC retention time turned out to be 656 s.
For `O=C(CN1C(=O)C(C(=O)N2CCCC2)Sc2ccccc21)Nc1cccc(Cl)c1` (stereo not drawn) the value was 1080 s; for `Cc1cccc(-n2c(=O)c3sccc3n(Cc3nc(-c4ccc(F)c(Cl)c4)no3)c2=O)c1`, 1100 s.
For `COc1ccc(-c2nnc(SCc3ccc(C#N)cc3)o2)cc1` the value was 948 s.
For `N#Cc1nc(-c2ccc(COc3ccc(Cl)cc3)o2)oc1NCCCn1ccnc1` the value was 627 s.
`CC(C)CN1CCn2cc(S(=O)(=O)NCc3ccc(F)c(Cl)c3)cc2C1=O`: the RP-LC retention time came to 855 s.
For `CCn1cc(-c2ccncc2)cc1C(=O)NCc1ccc(Br)cc1` the value was 698 s.
Then `Cn1c(CNC(=O)CCC2CCCN(c3cc(NC4CC4)ncn3)C2)nc2ccccc21` (stereo not drawn), with 560 s; and `CC1CCN(S(=O)(=O)c2ccc(-c3nnc(C(=O)NCc4ccc(Cl)cc4)o3)cc2)CC1`, with 1120 s; and `CN1C(=O)Cc2cc(C(=O)N3CCN(c4ccccc4F)CC3)ccc21`, with 765 s.
Then `CCC(=O)N1CCN(c2nc3c(s2)CC(C(=O)O)CC3)CC1` (stereo not drawn), with 578 s.
In the case of `CCc1ccc(-c2cc3c(=O)n(Cc4noc(CN5CCN(C)CC5)n4)ccn3n2)cc1`, the RP-LC retention time stood at 647 s.
Then `COc1ccc(-c2ccnc3nc(CC(C)C)nn23)c(F)c1`, with 904 s; and `CCc1ccccc1NC(=O)CSc1nnc2c3cc(-c4ccc(C)c(C)c4)nn3ccn12`, with 1050 s.
Then `Cc1cc(C)c2c(N3CCCCC3)nc(C(=O)NCC3CCCO3)nc2n1` (stereo not drawn), with 621 s.
